Measured values as given in patent US6232340A, “Vanadium complexes and derivatives thereof and methods related thereto” (priority 1998, dated 2001).
Entries after “also recorded” stand apart in the source; their conditions may differ.

What was measured:
[1] = test system: Collagen Induced Arthritis; experiment: Treatment of collagen induced arthritis (CIA) with BMOV and NAC; format: in vivo, rats
Protocol: CIA in rats is a model of chronic inflammatory synovitis with pannus formation, neovascularization, and joint destruction similar to rheumatoid arthritis (RA). After immunization with native collagen type II (CII) in incomplete Freund's adjuvant, 90-100% of genetically susceptible rats reliably develop clinical arthritis within 10 to 14 days.
Arthritis is induced in syngeneic 8 week old female Louvain (LOU) rats by intradermal immunization under ether anaesthesia on Day 0 with 0.5 mg native chick collagen II (CII) (Genzyme, Boston, Mass.) solubilized in 0.1M acetic acid and emulsified in incomplete Freund's adjuvant (IFA) (Difco, Detr, Mich.) (D. E. Trentham et al., J. Exp. Med. 146:857-868, 1977). Onset of clinical arthritis typically develops in 90-100% of control rats 10-12 days post CII immunization.
On day 10 post immunization, arthritis-induced rats are randomized into two groups. Control rats (n=10) receive only an aqueous vehicle at a dose of 100 mg/kg/day s.c. The experimental group (n=10) receives an aqueous vehicle at 100 mg/kg/day s.c., as well as O[BEOV]2 subcutaneously at the appropriate dose.
The severity of clinical arthritis in each limb is scored daily based on an objective integer scale of 0-4 (D. E. Trentham et al., J. Exp. Med. 146:857-868, 1977). A score of 0 indicates an unaffected limb, while a score of 4 represents fulminant erythema and edema involving distal digits. The arthritic index is defined as the sum of its four limb scores. Since CIA typically involves only the hind limbs, an arthritic index of 6 to 8 is considered to represent severe arthritis.
At the end of the study (Day 18-post arthritis onset), hind limb radiographs are obtained. An investigator blinded to the treatment protocol assigns a score to each limb, based on the degree of soft tissue swelling, joint space narrowing, periosteal new bone information, and the presence of erosions and ankylosis (0=normal; 3=maximal joint destruction). The radiographic index is defined as the sum of the limbs.
The humoral immunity is evaluated by collecting rat serum on Day 18 post arthritis onset for measuring anti-CII IgG by an enzyme linked immunosorbent assay (ELISA) (E. Brahn and D. E. Trentham, Cell Immunol. 86:421-428, 1984; E. Brahn and D. E. Trentham, Cell Immunol. 118:491-503, 1989). Antibody titers are normalized against a previously standardised curve and absorbance read at 490 nm at a serum dilution of 1:2500.
Synovium is selected from rats on Day 5 and Day 18-post arthritis onset to study joint morphology using electron microscopy. On Day 18-post arthritis onset, one ankle joint of each arthritic control and O[BEOV]2 -treated rat is removed, critical point dried, and gold sputter-coated for scanning electron microscopy to examine the trochlear surfaces. Conventional transmission electron microscopy is also performed on the articular cartilage of the trochlear surfaces of native, arthritic control, and O[BEOV]2 -treated animals.

IL-1 = experiment: Northern blot, synovial IL-1 expression in CIA rats; format: in vivo; conditions: vs control group
From the text: (§1) Collagenase, stromelysin, and IL-1 mRNA were readily detected in the vehicle control group. When normalized for RNA loading, expression of all three genes was decreased in the animals in the BMOV-treated group compared to the control group.

stromelysin = experiment: Northern blot, synovial stromelysin expression in CIA rats; format: in vivo; conditions: vs control group
From the text: as §1

collagenase = experiment: Northern blot, synovial collagenase expression in CIA rats; format: in vivo; conditions: vs control group
From the text: as §1

[2] = test system: H460 human non-small cell lung cancer
Protocol: The purpose was to establish safe efficacious levels of s.c., b.i.d. administration of OHBEOV for 9 days. The protocol used is as follows. 20 female Scid/Rag-2 mice were randomly divided into 4 groups. Groups were treated as follows. H460 tumor cells were inoculated (50 μl 10^6 cells bilaterally in the posterior dorsal region) as discussed earlier. On day 11 following tumor inoculation, the 9 day treatment began. Vehicle (isotonic phosphate buffer) filtered through 0.22 μm sterile filter (Costar 14066).
Mice were weighed as a group prior to injection in the morning. Injections were s.c. in the neck region distal to the tumor sight and were delivered b.i.d. between 8-9 a.m. and between 4-5 p.m. Tumor volumes were estimated on a daily basis from measurements taken with calipers.

[3] = Maximum Tolerated Dose study, s.c. b.i.d. for nine days in DBA-2 mice (Example 33); format: in vivo, female mice (DBA-2)
Protocol: A Maximum Tolerated Dose (M.T.D.) study was undertaken to determine a safe tolerable dose for administration of OHBEOV through a parenteral (s.c.) route of administration delivered twice daily (b.i.d.) for nine days in female mice (DBA-2). The protocol was as follows. 14 DBA-2 mice were randomly divided into groups of 2 for a total of 7 groups. Groups were treated as follows. Vehicle (sterile isotonic phosphate buffer, pH 7.2) was filtered through 0.22 pm sterile filter (Costar 140666). OHBEOV was dissolved with gentle heating and stirring for about 20 min.
(§2) 1) Vehicle control: 300 μl/dose for a total of 600 μl/day.
7) 300 μl of 2 mg/mL OHBEOV to be injected for a total of 1200 μg/day.
(§3) Mice were weighed as a group (N=2) prior to injection in the morning. […] Treatment continued for a total of nine days. Groups were observed and weighed daily for 2 weeks following the final treatment and observed for behavioral signs of toxicity i.e. reduced preening, and mobility and organ failure, i.e., weight loss, death. Following this period, mice were terminated with carbon dioxide. Liver, spleen and kidney (and other organs) were weighed and kept for histology if appearance appeared abnormal.

[4] = test system: H460 (human non-small cell lung cancer); experiment: Efficacy on H460 human non-small cell lung cancer xenograft in SCID-RAG-2 mice (Example 37); format: in vivo, human tumor cells in SCID-RAG-2 female mice; conditions: for tumor size reduction (caliper volumes) / reduction of tumor weight relative to control: 500 μg/dose s.c. b.i.d., 9 days; for tumor size reduction (caliper volumes): vs control; for reduction of tumor weight relative to control: day 10
Protocol: A study was undertaken to confirm the efficacy of OHBEOV and O[BEOV]2 using SCID-RAG-2 female mice with implanted human H460 tumors (lung cancer). […] The protocol used was as follows. 15 SKID-RAG-2 mice were randomly divided into 3 groups. Groups were treated as follows. […] Vehicle (isotonic phosphate buffer) was filtered through 0.22 pm sterile filter (Costar 140666).
(§4) The groups were as follows:
(§5) 1) Vehicle control: isotonic phosphate buffer. 300 μl/dose, total of 600 μl/day.
(§6) Treatment continued for a total of nine days. Mice were terminated on day 10 with carbon dioxide. Tumors were removed and weighed following blotting.

[5] = Maximum Tolerated Dose study, i.v. b.i.d. for nine days in DBA-2 mice (Example 34); format: in vivo, female mice (DBA-2)
Protocol: A Maximum Tolerated Dose (M.T.D.) study was undertaken to determine a safe tolerable dose for administration of OHBEOV through an intravenous route of administration delivered twice daily for nine days in female mice (DBA-2). The protocol was as follows. 8 DBA-2 female mice were randomly divided into groups of 2 for a total of 4 groups. Groups were treated as follows. Vehicle (sterile isotonic phosphate buffer, pH 7.2) was filtered through 0.22 μm sterile filter (Costar 140666).
as §2
as §3, with “toxicity, i.e.,” for “toxicity i.e.”, “organs)” for “organs) were”

[6] = Plasma glucose levels following acute and b.i.d. dosing (insulin mimetic effect); format: in vivo
MDAY-D2 tumors = experiment: Tumor efficacy on MDAY-D2 tumors in DBA-2 mice (Example 36); format: in vivo, murine tumor cells in DBA-2 mice
Protocol: The protocol used is as follows. 10 DBA-2 mice were randomly divided into 2 groups. Groups were treated as follows. […] Vehicle (isotonic phosphate buffer) was filtered through 0.22 μm sterile filter (Costar 140666).
as §4, §5, §6

[7] = isotonic phosphate buffered saline
non-proliferating cells = conditions: previous studies; cited from earlier work
synoviocytes = conditions: previously shown; cited from earlier work
proliferating cells = conditions: previous studies; cited from earlier work
[8] = test system: drug resistant cell lines; conditions: previous studies; cited from earlier work
[9] = xenograft model of human lung cancer

In the case of Cc1occc(=O)c1[O-].Cc1occc(=O)c1[O-].[O]=[V+2] [BMOV, Bis(maltolato)oxovanadium(IV)], the diarrhoea ([1]; 10 mg/kg/day) is reported as “not observed”, the diarrhoea ([1]; 15 mg/kg/day on Day 11 post arthritis onset) is reported as “minor diarrhoea” and the “cartilage damage (scanning and transmission electron micrographs)” value ([1]; joints vs control) is reported as “little cartilage damage and intact cartilage”. The “trochlear surface of articular cartilage” value ([1]; vs control rats) was “normal trochlear surface”, the “articular cartilage ultrastructure (transmission electron micrographs)” value ([1]; vs native animal) was “indistinguishable from the native animal” and the “inhibition of IL-1 gene expression” value (IL-1; printed "IL-In", normalized for RNA loading) was 85%. The “synovial expression of IL-1” value (IL-1) was “to a lesser degree, IL-1, were reduced”, the “inhibition of stromelysin gene expression” value (stromelysin; normalized for RNA loading) was 58% and the “synovial expression of stromelysin” value (stromelysin) was “reduced”. The “inhibition of collagenase gene expression” value (collagenase; normalized for RNA loading) was 78% and the “synovial expression of collagenase” value (collagenase) was “reduced”.

With CC(=O)N[C@@H](CS)C(=O)O [NAC] the arthritis severity ([1]; NAC alone) was “developed severe arthritis; also recorded: no appreciable effect on the clinical severity of CIA”.

For CCc1occc(=O)c1[O][V](=[O])([OH])[O]c1c(CC)occc1=O [OHBEOV, Bis(2-ethyl-3-hydroxy-4-pyronato)hydroxyoxovanadium(V)], the “dose-response of mean tumor weight” value ([2]; 600-1000 μg/day s.c., day 10) was “dose-response relationship”, the “correlation of tumor vanadium with tumor size and dose” value ([2]; atomic absorption spectroscopy, end of study) was “strongly correlated” and the myelosuppression ([2]; in vivo) was “no evidence of myelosuppression”. For the same molecule, the “plasma leukocyte count / immune response” value ([2]; in vivo) was “no significant changes in plasma leukocyte count”, the anti-tumor activity [2, 9] was “significant dose-dependent anti-tumor activity” and the “final tumor size reduction” value [2, 9] was “approximately 70%”. For the same molecule, the “spleen appearance upon necropsy” value ([3]; 600 μg/dose s.c., visual inspection) was “enlarged”, the maximum tolerated dose ([3]; b.i.d., s.c. for 9 days) was 500 µg/day and the weight loss ([3]; doses up to and including 500 μg (1000 μg/day) s.c., 9 day treatment and 14 day follow up) was “less than 15%”. For the same molecule, the “weight loss of one animal terminated” value ([3]; maximum dose of 600 μg s.c.) was 25%, the “tolerability (doses up to and including)” value ([3]; per dose, s.c. b.i.d., 9 days, well tolerated) was 500 µg and the “weight recovery following termination of treatment” value ([3]; s.c.) was “all animals regained their original weight”. For the same molecule, the “skin lesions at the injection site” value ([3]; s.c., higher doses) was “some skin lesions were noted”, the weight loss ([3]; treatment protocol and dose level used to demonstrate tumor efficacy) was “less than 15%” and the “tumor size reduction (caliper volumes)” value [4] was “significant reduction in tumor size”. For the same molecule, the “reduction of tumor weight relative to control” value [4] was “approximately 70%”, the tumor efficacy ([4]; human lung cancer xenograft at maximum tolerated dose, s.c. b.i.d. 9 days) was “significant tumor efficacy was demonstrated” and the weight loss ([5]; doses up to and including 300 μg (600 μg/day) i.v., 9 day treatment and 14 day follow up) was “less than 15%”. The “weight recovery following termination of treatment” value ([5]; i.v.) was “all animals regained their original weight”, the “tolerability (doses up to and including)” value ([5]; per dose, i.v. b.i.d., 9 days, well tolerated) was 300 µg and the “plasma glucose levels following dosing” value ([6]; acute and b.i.d. dosing) was “decreased following dosing”. The “plasma glucose level (normoglycemic range)” value ([6]; following dosing, non-diabetic animals) was 4 mM, the “time for plasma glucose to return to pre-dosing levels” value ([6]; single and multiple b.i.d. dosing) was at most 1 h and the “tumor size reduction (caliper volumes)” value (MDAY-D2 tumors; 500 μg/dose s.c. b.i.d., 9 days, vs control) was “significant reduction in tumor size”. For the same molecule, the “reduction of tumor weight relative to control” value (MDAY-D2 tumors; 500 μg/dose s.c. b.i.d., 9 days, day 10) was “approximately 70%”, the tumor efficacy (MDAY-D2 tumors; murine solid tumor model at maximum tolerated dose, s.c. b.i.d. 9 days) was “significant tumor efficacy was demonstrated” and the maximum solubility [7] was 6000 µg/mL.

In the case of [O]=[V]([O-])([O-])[O-] [orthovanadate], the “effect on non-proliferating cells” value (non-proliferating cells) is listed as “did not affect the non-proliferating cells”, the cytotoxicity to synoviocytes (synoviocytes) is listed as “cytotoxic to the cells” and the synoviocyte proliferation (synoviocytes) is listed as “inhibited synoviocyte proliferation”. For the same molecule, the “effect on proliferating cells” value (proliferating cells) was “toxic to proliferating cells” and the “toxicity to drug resistant cell lines” value [8] was “equally toxic to all the drug resistant cell lines”.

For O=S(=O)([O-])[O-].[O]=[V+2] [vanadyl sulphate], the cytotoxicity to synoviocytes (synoviocytes) is given as “cytotoxic to the cells” and the synoviocyte proliferation (synoviocytes) is given as “inhibited synoviocyte proliferation”.

In the case of “μ-Oxobis[bis(2-ethyl-3-hydroxy-4-pyronato)oxovanadium(V)] [O[BEOV]2]”, the “tumor size reduction (caliper volumes)” value [4] is reported as “significant reduction in tumor size” and the “reduction of tumor weight relative to control” value [4] is reported as “approximately 70%”.
